Assays:
[1] = system: Lone star tick larvae (Amblyomma americanum); experiment: Larval immersion microassay against larval-stage Lone star ticks; settings: Amblyomma americanum, 24 h, read-out: activity (percent larval mortality)
Description: The larval immersion microassay was conducted as described in detail in White, et al., J. Med. Entomol. 41: 1034-1042 (2004). Compounds of the invention were formulated in dimethylsulfoxide (DMSO) to prepare a stock solution at a concentration of at least 10 mM. Using 96-well microtiter plates, an aliquot of the mM sample was subsequently diluted in a water-based solution containing 1% ethanol and 0.2% Triton X-100, to obtain the desired concentration (typically 0.3 mM or lower) of compound in a volume of 0.1 ml (minimum n=3 replicates per compound or concentration). Approximately 30-50 Lone star tick larvae (Amblyomma americanum) were submerged into each well containing compounds. After a 30 minute immersion period, larvae were removed with a wide-bore pipette tip in 0.05 ml of fluid, dispensed into a commercial paper tissue biopsy bag which was sealed at the top with a plastic dialysis clip, inverted and allowed to air dry for 60 minutes. Bags containing larvae were then incubated at approximately 27 degrees Celsius and >90% relative humidity. After 24 hours, bags were opened, live and dead larvae were counted and percent larval mortality was calculated.
7 and 8 contain one chiral center each, and are racemic mixtures comprised of approximately 50% R- and 50% S-enantiomer. In vitro and surrogate animal (rat) studies were conducted to evaluate the biological activity of the R- and S-enantiomers of 7 and 8. For the in vitro study, larvae of the Lone star tick (Amblyomma americanum) were exposed to 9, 10, 11 and 12 using the larval immersion microassay at a concentration of no greater than 0.3 mM. Following exposure, larvae were removed, transferred to a tissue biopsy bag and incubated at approximately 27 degrees Celsius and >90% relative humidity. After 24 hours, biopsy bags were opened and the numbers of live and dead larvae were determined

[2] = system: brown dog tick (Rhipicephalus sanguineus); experiment: Residual efficacy against adult brown dog tick infestations on dogs, oral; format: in vivo; settings: Day 32
Description: (§1) Immediately following removal of D. variabilis ticks on Day 30, dogs were co-infested with approximately 50 adult, unfed brown dog ticks (R. sanguineus, approximately 50% male and 50% female) and approximately 100 adult, unfed cat fleas (C. felis, approximately 50% male and 50% female). Ticks and fleas were counted and removed on Day 32 (approximately 48 hours after infestation). GM percent efficacy of treatments against both tick species and fleas was calculated using the following formula: […]
(§2) The therapeutic (knockdown) and residual efficacy of 7, administered orally at a point dose of 35 mg/kg bodyweight, was evaluated against adult tick (Dermacentor variabilis and Rhipicephalus sanguineus) and adult cat flea (Ctenocephalides felis) infestations on dogs. Twelve (12) male and female beagle dogs were allocated to either an untreated, negative control group or 7 group (n=6 dogs per group). Dogs were infested with approximately 50 unfed, adult D. variabilis ticks on Days −1, 5, 12, 19, 28, 35 and 42. On Day 0, dogs were orally administered gelatin capsules containing Compound 8194 (50% technical active, 47% microcrystalline cellulose and 3% croscarmellose sodium, w/w) at a point dose of 35 mg/kg. D. variabilis tick counts and classification were conducted on Day 1 (thumb count, approximately 24 hours after treatment) and Days 2, 7, 14, 21, 30, 37 and 44 (approximately 48 hours after treatment). Following removal of D. variabilis ticks on Day 30, all dogs were co-infested with approximately 50 unfed, adult brown dog ticks (R. sanguineus) and approximately 100 unfed, adult cat fleas (C. felis). Brown dog tick and cat flea counts were conducted on Day 32 (approximately 48 hours after infestation). GM percent efficacy of treatments against both tick species and fleas was calculated using the following formula: […]
(§3) The therapeutic (knockdown) and residual efficacy of S-enantiomer, 9, administered orally at a point dose of 25 mg/kg bodyweight, was evaluated against adult tick (Dermacentor variabilis and Rhipicephalus sanguineus) and adult cat flea (Ctenocephalides felis) infestations on dogs. Twelve (12) male and female beagle dogs were allocated to either an untreated, negative control group or 9 group (n=6 dogs per group). Dogs were infested with approximately 50 unfed, adult D. variabilis ticks on Days −1, 5, 12, 19, and 28. On Day 0, dogs were orally administered gelatin capsules containing 9 (50% technical active, 47% microcrystalline cellulose and 3% croscarmellose sodium, w/w) at a point dose of 25 mg/kg. D. variabilis tick counts and classification were conducted on Day 1 (thumb count, approximately 24 hours after treatment) and Days 2, 7, 14, 21 and 30 (approximately 48 hours after treatment). Following removal of D. variabilis ticks on Day 30, all dogs were co-infested with approximately 50 unfed, adult brown dog ticks (R. sanguineus) and approximately 100 unfed, adult cat fleas (C. felis). Brown dog tick and cat flea counts were conducted on Day 32 (approximately 48 hours after infestation). GM percent efficacy of treatments against both tick species and fleas was calculated using the following formula: […]

[3] = Tolerability of oral treatment in dogs; format: in vivo, dog
Description: (§4) The therapeutic (knockdown) and residual efficacy of 5, administered orally at a point dose of 25 mg/kg bodyweight, was evaluated against adult American dog tick (D. variabilis) infestations on dogs. Six beagle dogs were allocated to one of two treatment groups, an untreated control group (n=4 dogs) or 5 group (n=2 dogs). On Day 0, two dogs were treated with 5 via oral gavage (25 mg/ml 5, dissolved in a solution of 55% polyethylene glycol-300, 35% propylene glycol and 10% water) at a point dose of approximately 25 mg/kg. Twenty-four (24) hours before treatment (Day −1), all dogs were infested with approximately 50 unfed, adult-stage American dog ticks (D. variabilis; approximately 50% male and 50% female). On Day 1, approximately 24 hours after treatment, thumb counts were conducted to determine the number and life-status classification of ticks present on all dogs (normal, moribund or dead; attached or detached). Ticks were not removed during thumb counts. On Day 2, approximately 48 hours after treatment, all ticks were classified and removed from dogs. Dogs were re-infested with approximately 50 unfed, adult D. variabilis ticks on Days 5 and 12, with tick classification, counts and removal on Days 7 and 14 (approximately 48 hours after each infestation).
(§5) The therapeutic (knockdown) and residual efficacy of 7 and 8, each administered orally at a point dose of 25 mg/kg bodyweight, was evaluated against adult tick (Dermacentor variabilis and Rhipicephalus sanguineus) and adult cat flea (Ctenocephalides felis) infestations on dogs. Twelve (12) male and female beagle dogs were randomly allocated to one of three treatment groups, four (4) dogs per group: Untreated control; 7, 25 mg/kg; and 8, 25 mg/kg. On Day −1, all dogs were infested with approximately 50 unfed, adult D. variabilis ticks. On Day 0, dogs were orally administered gelatin capsules containing either 7 or 8 (50% technical active, 47% microcrystalline cellulose and 3% croscarmellose sodium, w/w). Ticks were counted and classified, but not removed, on all dogs on Day 1, approximately 24 hours after treatment. On Day 2, approximately 48 hours after treatment, ticks were counted, classified and removed. Dogs were re-infested with the same number of D. variabilis ticks on Days 5, 12, 19 and 28 and tick counts were conducted on Days 7, 14, 21 and 30.
The therapeutic (knockdown) and residual efficacy of 7, administered orally at a point dose of 35 mg/kg bodyweight, was evaluated against adult tick (Dermacentor variabilis and Rhipicephalus sanguineus) and adult cat flea (Ctenocephalides felis) infestations on dogs. Twelve (12) male and female beagle dogs were allocated to either an untreated, negative control group or 7 group (n=6 dogs per group). Dogs were infested with approximately 50 unfed, adult D. variabilis ticks on Days −1, 5, 12, 19, 28, 35 and 42. On Day 0, dogs were orally administered gelatin capsules containing Compound 8194 (50% technical active, 47% microcrystalline cellulose and 3% croscarmellose sodium, w/w) at a point dose of 35 mg/kg. […] GM percent efficacy of treatments against both tick species and fleas was calculated using the following formula: […]
The therapeutic efficacy and speed of kill of 7, administered orally at a point dose of 20 mg/kg bodyweight, was evaluated against adult cat flea (Ctenocephalides felis) infestations on dogs. […]

[4] = system: cat flea (Ctenocephalides felis); experiment: Residual efficacy against adult cat flea infestations on dogs, oral; format: in vivo; settings: Day 32
Description: as §1, §2, §3

[5] = system: adult American dog tick (Dermacentor variabilis); experiment: Therapeutic (knockdown) and residual efficacy against adult American dog tick infestations on dogs, oral; format: in vivo; settings: for therapeutic efficacy / Residual efficacy: oral gavage 25 mg/kg
Description: as §4, §5, §2
The therapeutic (knockdown) and residual efficacy of S-enantiomer, 9, administered orally at a point dose of 25 mg/kg bodyweight, was evaluated against adult tick (Dermacentor variabilis and Rhipicephalus sanguineus) and adult cat flea (Ctenocephalides felis) infestations on dogs. […]

[6] = Table 2, oral capsule 25 mg/kg, Day 2
[7] = Table 2, oral capsule 25 mg/kg, Day 7
[8] = Table 2, oral capsule 25 mg/kg, Day 14
[9] = Table 2, oral capsule 25 mg/kg, Day 21
[10] = Table 2, oral capsule 25 mg/kg, Day 30
[11] = Table 7, oral capsule 25 mg/kg, Day 1
[12] = Table 7, oral capsule 25 mg/kg, Day 2
[13] = Table 7, oral capsule 25 mg/kg, Day 7
[14] = Table 7, oral capsule 25 mg/kg, Day 14
[15] = Table 7, oral capsule 25 mg/kg, Day 21
[16] = Table 7, oral capsule 25 mg/kg, Day 30

For Cc1cc(C2=NOC(c3cc(Cl)c(F)c(Cl)c3)(C(F)(F)F)C2)ccc1C(=O)NCc1ccc2c(c1)B(O)OC2(C)C (racemic) [Compound 8, 4-(5-(3,5-Dichloro-4-fluorophenyl)-5-(trifluoromethyl)-4,5-dihydroisoxazol-3-yl)-N-((1-hydroxy-3,3-dimethyl-1,3-dihydrobenzo[c][1,2]oxaborol-6-yl)methyl)-2-methylbenzamide], the mortality at 300 µM [1] was no less than 80%, the “Geometric mean group live parasite counts” value ([2]; Table 2, oral capsule 25 mg/kg) was 4.1 and the tolerability ([3]; Example 6, oral capsule 25 mg/kg) was “well tolerated”. For the same molecule, the “Geometric mean group live parasite counts” value ([4]; Table 2, oral capsule 25 mg/kg) was 7.1, the continued residual efficacy ([5]; Example 6, oral capsule 25 mg/kg, through at least 14 days) was 100% and the “Geometric mean group live parasite counts” value ([5]; Table 2, oral capsule 25 mg/kg, Day 1) was 0.0. The “% efficacy” value [5, 6] was “(100) %”, the “Geometric mean group live parasite counts” value [5, 6] was 0.0 and the “% efficacy” value [5, 7] was “(100) %”. For the same molecule, the “Geometric mean group live parasite counts” value [5, 7] was 0.0, the “% efficacy” value [5, 8] was “(100) %” and the “Geometric mean group live parasite counts” value [5, 8] was 0.0. For the same molecule, the “% efficacy” value [5, 9] was “(98.4) %”, the “Geometric mean group live parasite counts” value [5, 9] was 0.7 and the “% efficacy” value [5, 10] was “(81.0) %”. For the same molecule, the “Geometric mean group live parasite counts” value [5, 10] was 6.7.
With Cc1cc(C2=NOC(c3cc(Cl)c(F)c(Cl)c3)(C(F)(F)F)C2)ccc1C(=O)NCc1ccc2c(c1)C(C)(C)OB2O (stereo not shown) [Compound 3, 4-(5-(3,5-Dichloro-4-fluorophenyl)-5-(trifluoromethyl)-4,5-dihydroisoxazol-3-yl)-N-((1-hydroxy-3,3-dimethyl-1,3-dihydrobenzo[c][1,2]oxaborol-5-yl)methyl)-2-methylbenzamide] the mortality at 300 µM [1] was no less than 80%, the “Geometric mean group live parasite counts” value [5, 11] was 0.0 and the “% efficacy” value [5, 12] was “(100) %”. For the same molecule, the “Geometric mean group live parasite counts” value [5, 12] was 0.0, the “Geometric mean group live parasite counts” value [5, 13] was 1.2 and the “Geometric mean group live parasite counts” value [5, 14] was 13.3.
For Cc1cc(C2=NOC(c3cc(Cl)cc(Cl)c3)(C(F)(F)F)C2)ccc1C(=O)NCc1ccc2c(c1)B(O)OC2(C)C (stereo not shown) [Compound 5, 4-(5-(3,5-Dichlorophenyl)-5-(trifluoromethyl)-4,5-dihydroisoxazol-3-yl)-N-((1-hydroxy-3,3-dimethyl-1,3-dihydrobenzo[c][1,2]oxaborol-6-yl)-methyl)-2-methyl benzamide], the mortality at 300 µM [1] was no less than 80%, the tolerability ([3]; oral gavage 25 mg/kg) was “well tolerated” and the therapeutic efficacy ([5]; 24 hour post-treatment) was 100%. For the same molecule, the therapeutic efficacy ([5]; 48 hour post-treatment) was 100%, the Residual efficacy ([5]; Day 7) was 82.6% and the Residual efficacy ([5]; Day 14) was 82.7%.
With Cc1cc(C2=NO[C@@](c3cc(Cl)c(F)c(Cl)c3)(C(F)(F)F)C2)ccc1C(=O)NCc1ccc2c(c1)B(O)OC2(C)C [Compound 11, (S)-4-(5-(3,5-Dichloro-4-fluorophenyl)-5-(trifluoromethyl)-4,5-dihydroisoxazol-3-yl)-N-((1-hydroxy-3,3-dimethyl-1,3-dihydrobenzo[c][1,2]oxaborol-6-yl)methyl)-2-methylbenzamide] the mortality at 300 µM [1] was no less than 80%, the “Geometric mean group live parasite counts” value ([2]; Table 7, oral capsule 25 mg/kg) was 2.8 and the “Geometric mean group live parasite counts” value ([4]; Table 7, oral capsule 25 mg/kg) was 2.5. The efficacy ([5]; Example 11, oral capsule 25 mg/kg, through Day 21) was no less than 99%, the “Geometric mean group live parasite counts” value [5, 11] was 0.0 and the “% efficacy” value [5, 12] was “(100) %”. The “Geometric mean group live parasite counts” value [5, 12] was 0.0, the “% efficacy” value [5, 13] was “(98.8) %” and the “Geometric mean group live parasite counts” value [5, 13] was 0.3. For the same molecule, the “% efficacy” value [5, 14] was “(99.1) %”, the “Geometric mean group live parasite counts” value [5, 14] was 0.3 and the “% efficacy” value [5, 15] was “(99.0) %”. The “Geometric mean group live parasite counts” value [5, 15] was 0.2, the “% efficacy” value [5, 16] was “(95.6) %” and the “Geometric mean group live parasite counts” value [5, 16] was 1.1.

Reference: US8546357B2, “Boron-containing small molecules for controlling ectoparasites” (priority 2011, dated 2013)
